Test results reported in publication PMC8335727 (Inorganic Chemistry, 2021).

Experiment: log D7.4 by shake-flask method, n-octanol/buffered aqueous solution
Type: physicochemical
Conditions: partitioning, n-octanol/water, pH 7.4, read-out: log D7.4 (proligand)
Experimental: Besides pKa values, lipophilicity is also an important pharmacological property of a drug, as it strongly influences the ability of the compound to pass through biological membranes. Therefore, distribution coefficients (log D7.4) were determined using the shake-flask method in an n-octanol-buffered aqueous solution at pH 7.4 (Table 1). The log D7.4 values indicate the moderate lipophilic character of the proligands. The substitution at the end nitrogen atom of the thosemicarbazide moiety and the presence of a methyl group at the Schiff base bond induce a somewhat higher lipophilicity. The presence of the phenolic moiety undoubtedly increases the log D7.4 values compared to those of FTSC (+0.73),[67]
The time-dependence of UV–vis absorption spectra was monitored for proligands HL2 at pH 7.4, 1.5 and 10.0 in 30% (v/v) DMSO/H2O, and for HL1 and HL3 at pH 7.4.
The redox reaction of the copper(II) complexes (25 µM) with GSH (1250 µM) was studied at 7.40 (50 mM HEPES buffer with 0.1 M KCl) and at 25.0 ± 0.1 °C on Hewlett Packard 8452A diode array spectrophotometer using a special, tightly closed tandem cuvette (Hellma Tandem Cell, 238-QS) as described previously.6,7 Calculation of the observed rate constants (kobs) of the redox reaction was performed by using a reported approach.6,7
Distribution coefficients (D7.4) values were determined by the traditional shake-flask method in n-octanol/buffered aqueous solution at pH 7.40 (50 mM HEPES buffer at 25.0 ± 0.2 °C as described previously in our previous work.8
2.4. Spectroelectrochemical studies
Cyclic voltammetry experiments with 0.5 mM solutions of Cu(II) complexes and corresponding ligands in 0.1 M n-Bu4NPF6 in both DMSO and methanol were performed under argon atmosphere using a three-electrode arrangement with glassy carbon 1 mm disc working electrode (from Ionode, Australia), platinum wire as counter electrode, and silver wire as pseudo -reference electrode. As a supporting e lectrolyte, 0.1 M n-Bu4NPF6 was used in DMSO (SeccoSolv max.
0.025% H2O, Merck) and 0.1 M LiClO4 (≥95.0%, Merck) in methanol. […]

Q: For Cc1cc(NC(=S)NN=Cc2ccccn2)cc(C)c1O [HL^1, 2-Formylpyridine 4-(4-hydroxy-3,5-dimethylphenyl)thiosemicarbazone], which logD is on record?
A: 1.3

Q: With Cc1cc(NC(=S)NN=Cc2ncccc2N)cc(C)c1O [HL^3, 3-Amino-2-formylpyridine 4-(4-hydroxy-3,5-dimethylphenyl)thiosemicarbazone] as the compound, how does the logD read?
A: 1.67

Q: For CC(=NNC(=S)Nc1cc(C)c(O)c(C)c1)c1ccccn1 [HL^2, 2-Acetylpyridine 4-(4-hydroxy-3,5-dimethylphenyl)thiosemicarbazone], which logD is on record?
A: 2.1
